# According to US7232809B2, “Mitochondrially targeted antioxidants” (Antipodean Pharmaceuticals, Inc., priority 1997, dated 2007):
# Where two headings read alike, the source gives them in different places.
# What was measured:
# rat brain homogenates = assay: Inhibition of lipid peroxidation in rat brain homogenates (TBARS assay); assay type: biochemical
# Method: The rat brain homogenates were incubated with or without various concentrations of the test compounds (compound 1; native Vitamin E (α-tocopherol), bromobutyl triphenylphosphonium bromide, Trolox (a water soluble form of Vitamin E) and compound 2, ie2-(2-bromoethyl)-3,4-dihydro-2,5,7,8-tetramethyl-2H-1-benzopyran-6-ol, the precursor of compound 1 (“Brom Vit E”)) and the oxidative damage occurring over the incubation was quantitated using the TBARS assay (Stocks et al., 1974, Clin Sci Mol Med 47,215–222). From this the concentration of compound required to inhibit oxidative damage by 50% was determined. In this system 210 nM compound 1 inhibited oxidative stress by 50% while the corresponding value for native Vitamin E was 36 nM. The value for bromobutyltriphenylphosphonium bromide, which contains the triphenylphosphonium moiety but not the antioxidant Vitamin E moiety was 47 μM. […] Further details of the experimental procedures and results are set out below.
# (§1) The IC50 values for inhibition of lipid peroxidation were determined in rat brain homogenates, and are means±SEM or range of determinations on 2–3 brain preparations. Octan-1-ol/PBS partition coefficients are means±SEM for three independent determinations. N.D. not determined. Partition coefficients were determined by mixing 200 μM of the compound in 2 ml water-saturated octanol-1-ol with 2 ml octanol-saturated-PBS at room temperature for 1 h, then the two layers were separated by brief centrifugation and their concentrations determined spectrophotometrically from standard curves prepared in PBS or octanol. To measure antioxidant efficacy four rat brains were homogenised in 15 ml 40 mM potassium phosphate (pH 7.4), 140 mM NaCl at 4° C., particulate matter was pelleted (1,000×g at 4° C. for 15 min) and washed once and the combined supernatants stored frozen. Aliquots were rapidly thawed and 5 mg protein suspended in 800 μl PBS containing antioxidant or ethanol carrier and incubated at 37° C. for 30 min. Thiobarbituric acid reactive species (TBARS) were quantitated at 532 nm by adding 200 μl conc. HClO4 and 200 μl 1% thiobarbituric acid to the incubation, heating at 100° C. for 15 min and then cooling and clarification by centrifugation (10,000×g for 2 min).
# [1] = Octan-1-ol/PBS partition coefficient; assay type: physicochemical; conditions: 200 μM, room temperature, 1 h, means±SEM of three
# Method: as §1
# rat liver mitochondria [2] = system: rat liver mitochondria
# rat liver mitochondria [3] = assay: Reduction of mitoquinone by intact mitochondria (A275); assay type: biochemical
# Method: Rat liver mitochondria (100 μg/ml) were incubated in 120 mM KCl, 10 mM HEPES, 1 mM EGTA, pH 7.2 at 20° C. and A275 monitored. In panel A rotenone and succinate (5 mM) were present and mitoquinone (50 μM) was added where indicated. This experiment was repeated in the presence of malonate (20 mM) or FCCP ([…]). In panel B glutamate and malate (5 mM of each) were present from the start and mitoquinone (50 μM) was added where indicated. This experiment was repeated in the presence of FCCP or with rotenone and FCCP.
# [4] = biological target: T1, beef heart mitochondrial membranes, Complex III (Bos taurus, UniProt P00157+P13272); assay: Oxidation of mitoquinol by beef heart mitochondrial membranes (Complex III) and reduction of cytochrome c; assay type: biochemical
# T1 construct: from tissue; host or cells: beef heart mitochondrial membranes
# [5] = Stability of the quinol form in air; assay type: physicochemical
# Method: The quinone was reduced to the quinol by taking a mixture of crude quinone and quinol (73 mg, ca. 3:1 by 1H NMR) in methanol (1 mL) was added NaBH4 (21 mg, 0.55 mmol). The mixture was stirred slowly under an argon atmosphere for 10 min. Excess NABH4 was quenched with 5% HBr (0.2 mL) and the mixture extracted with CH2Cl2. The organic extract was washed with H2O (3×5 mL). Solvent was removed under reduced pressure, giving a mixture of quinone and quinol (ca 1:5 by ^1H NMR) as a pale yellow solid (55 mg). For routine preparation of the quinol form the ethanolic solution, dissolve in 5 vols of water, (=1 ml) add a pinch of NaBH4 leave on ice in the dark for 5 min, then extract 3×0.5 ml dichloromethane, Wash with water/HCl etc blow off in nitrogen, dissolve in same vol of etoh and take spectrum and store at −80 under argon. Yield about 70–80%. […] Collect the upper organic phase and evaporate to dryness under a stream of N2 and dissolve in 1 ml ethanol acidified to pH 2.
# rat liver mitochondria [6] = assay: Uptake of radiolabelled mitoquinol by energised mitochondria; assay type: in vitro ADME; conditions: tritiated compound, reversed by FCCP
# Method: The next step was to see if mitoquinol was accumulated by energised mitochondria. To do this a tritiated version of the compound was made, incubated with energised mitochondria and the amount taken up into the mitochondria determined.
# rat liver mitochondria [7] = assay: Toxicity of mitoquinol to isolated mitochondria (membrane potential, respiration rate)
# Method: In A rat liver mitochondria energised with succinate were incubated with various concentrations of mitoquinol and the membrane potential determined as a percentage of control incubations. In B the respiration rate of succinate energised mitochondria under state 4 (black), state 3 (white) and uncoupled (stippled) conditions, as a percentage of control incubations.
# The next assays were to determine the toxicity of these compounds to mitochondria and cells. To determine the toxicity to isolated mitochondria the effect on membrane potential and respiration rate were measured (FIG. 16).
# ferricytochrome c = ferricytochrome c (Homo sapiens, UniProt P99999); assay: Reactions of mitoquinone in the absence of mitochondrial membranes; assay type: biochemical
# Method: FIGS. […] In panel A rotenone and antimycin were present and for the t=0 scan, then succinate (5 mM) was added and scans repeated at 5 minute intervals as indicated. In panel B A275 was monitored in the presence of rotenone and antimycin and then mitoquinone (50 μM) was added, followed by succinate (5 mM) and malonate (20 mM) where indicated. In Panel C rotenone, ferricytochrome c (50 μM) and malonate (20 mM) were present, A275 was monitored and mitoquinol (50 μM) and myxathiazol (10 μM) were added where indicated. In panel D A550 was monitored and the experiment in Panel C was repeated in the presence of KCN. Addition of myxathiazol inhabited this rate by about 60–70%.
# [8] = biological target: T2, beef heart mitochondrial membranes, Complex II (Bos taurus, UniProt P35720+Q3T189+Q95123); assay: Reduction of mitoquinone by beef heart mitochondrial membranes with succinate (Complex II); assay type: biochemical
# T2 construct: from tissue; host or cells: beef heart mitochondrial membranes
# Method: FIGS. 12A to 12D show reactions of [10-(6′-ubiquinonyl)decyltriphenylphosphonium bromide] (“mitoquinone”) and the reduced form of the compound (“mitoquinol”) with mitochondrial membranes. Beef heart mitochondrial membranes (20 μg/ml) were suspended in 50 mM sodium phosphate, pH 7.2 at 20° C. In panel A rotenone and antimycin were present and for the t=0 scan, then succinate (5 mM) was added and scans repeated at 5 minute intervals as indicated. In panel B A275 was monitored in the presence of rotenone and antimycin and then mitoquinone (50 μM) was added, followed by succinate (5 mM) and malonate (20 mM) where indicated. In Panel C rotenone, ferricytochrome c (50 μM) and malonate (20 mM) were present, A275 was monitored and mitoquinol (50 μM) and myxathiazol (10 μM) were added where indicated. In panel D A550 was monitored and the experiment in Panel C was repeated in the presence of KCN. Addition of myxathiazol inhabited this rate by about 60–70%.
# To determine whether the mitochondrial respiratory chain could also oxidise or reduce the compound mitoquinone was incubated with beef heart mitochondrial membranes (FIG. 12). In panel A the spectrum of fully oxidised mitoquinone in the presence of antimycin inhibited membranes is shown (t=0; FIG. 12A). Addition of succinate led to the gradual reduction of the […] as measured by repeating the measurement every five minutes and showing that the peak at 275 nm gradually disappeared, the presence of antimycin prevented the oxidation of the quinol by mitochondrial complex III.
# The reduction of mitoquinone can be followed continuously at A275 nm (FIG. 12B). […] The rate of reduction of mitoquinone was 51±9.9 nmol/min/mg protein, which compares with the rate of reduction of cytochrome c by succinate in the presence of KCN of 359 nmol/min/mg. Allowing for the 2 electrons required for mitoquinone reduction compared with 1 for cytochrome c the rate of electron flux into the mitoquinone pool is of similar order to the electron flux through the respiratory chain.
# [9] = system: pentane extracted beef heart mitochondria; assay: Reactions with pentane-extracted beef heart mitochondria; assay type: biochemical; conditions: for restoration of NADH oxidation: pentane extracted beef heart mitochondria, NADH 125 μM, 50 μM compound
# Method: Pentane extracted beef heart mitochondria (100 μg protein/ml) were suspended in 50 mM sodium phosphate, pH 7.2 at 20° C. In Panel A NADH (125 μM) was added and A340 was monitored and ubiquinone-1 (UQ-1; 50 μM added where indicated. This was repeated in Panel b, except that mitoubiquinone (50 μM) was added. In Panel C pentane extracted mitochondria were incubated with mitoquinone (50 μM), A275 was monitored and succinate (5 mM) and malonate (20 mM) added where indicated. In Panel D pentane-extracted mitochondria were incubated with NADH (125 μM), ferricytochrome c (50 μM) and A550 was monitored and mitoquinone (50 μM) was added where indicated. Addition of myxathiazol inhibited the rate of reduction by about 60–70%;
# Mitoquinone/ol may be picking up and donating electrons directly from the active sites of the respiratory complexes, or it could be equilibrating with the endogenous mitochondrial ubiquinone pool. To address this question the endogenous ubiquinone pool was removed from beef heart mitochondria by pentane extraction.
# [10] = TBARS, read-out: concentration that inhibited oxidative stress by 50%
# [11] = means±SEM or range, 2–3 brain preparations, read-out: IC50 for inhibition of lipid peroxidation
# T2 sequence (P35720 30-169): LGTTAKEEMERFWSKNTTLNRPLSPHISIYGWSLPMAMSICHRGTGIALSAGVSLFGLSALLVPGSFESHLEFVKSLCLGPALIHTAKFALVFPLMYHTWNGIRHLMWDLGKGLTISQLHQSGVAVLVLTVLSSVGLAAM
# T2 sequence (Q95123 56-158): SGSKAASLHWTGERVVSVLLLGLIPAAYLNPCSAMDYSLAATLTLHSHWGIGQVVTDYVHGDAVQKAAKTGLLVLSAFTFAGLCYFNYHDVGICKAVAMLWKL
# T2 sequence (Q3T189 29-280): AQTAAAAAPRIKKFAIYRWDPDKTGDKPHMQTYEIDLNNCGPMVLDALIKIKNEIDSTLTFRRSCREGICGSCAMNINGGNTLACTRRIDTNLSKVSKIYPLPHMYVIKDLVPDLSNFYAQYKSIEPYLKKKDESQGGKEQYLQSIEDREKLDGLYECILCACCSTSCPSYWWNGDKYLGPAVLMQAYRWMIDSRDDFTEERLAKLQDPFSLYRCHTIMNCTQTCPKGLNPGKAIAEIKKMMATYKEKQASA
# T2 sequence (P31039 44-665 partner): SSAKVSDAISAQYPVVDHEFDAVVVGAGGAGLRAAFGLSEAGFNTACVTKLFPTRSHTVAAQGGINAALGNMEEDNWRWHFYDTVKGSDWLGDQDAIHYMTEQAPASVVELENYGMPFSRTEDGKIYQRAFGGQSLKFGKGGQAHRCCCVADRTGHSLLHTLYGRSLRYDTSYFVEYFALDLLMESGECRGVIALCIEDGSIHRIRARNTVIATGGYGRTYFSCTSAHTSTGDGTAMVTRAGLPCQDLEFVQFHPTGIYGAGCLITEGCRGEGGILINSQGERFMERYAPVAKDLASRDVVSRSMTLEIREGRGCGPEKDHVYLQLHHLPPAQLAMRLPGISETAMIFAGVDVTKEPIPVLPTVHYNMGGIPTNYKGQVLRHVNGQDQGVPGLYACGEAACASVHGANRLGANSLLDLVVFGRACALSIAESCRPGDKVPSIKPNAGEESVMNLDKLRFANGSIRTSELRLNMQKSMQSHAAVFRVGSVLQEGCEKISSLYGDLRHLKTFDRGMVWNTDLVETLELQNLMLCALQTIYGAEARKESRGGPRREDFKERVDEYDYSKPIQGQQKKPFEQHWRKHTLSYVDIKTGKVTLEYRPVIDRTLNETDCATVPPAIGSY
# Chain of ferricytochrome c (P99999 whole entry): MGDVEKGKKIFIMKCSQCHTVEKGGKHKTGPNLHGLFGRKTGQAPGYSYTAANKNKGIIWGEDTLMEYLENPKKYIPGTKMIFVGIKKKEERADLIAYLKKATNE
smiles,measurement,setting,value
"BrCCCC[P+](c1ccccc1)(c1ccccc1)c1ccccc1.[Br-] [BrBTP, bromobutyltriphenylphosphonium bromide]",IC50,rat brain homogenates; [10],47 µM
same,Octanol:PBS partition coefficient,[1],3.83 ± 0.22
"Cc1c(C)c2c(c(C)c1O)CCC(C)(CCBr)O2 (stereo not drawn) [Bromo Vit E, 2-(2-bromoethyl)-3,4-dihydro-6-hydroxy-2,5,7,8-tetramethyl-2H-1-benzopyran]",IC50,rat brain homogenates; [11],0.045 ± 0.026 µM
same,Octanol:PBS partition coefficient,[1],33.1 ± 4.4
"C[P+](c1ccccc1)(c1ccccc1)c1ccccc1 [TPMP, methyltriphenylphosphonium, reference compound]",proportion membrane-bound within mitochondria,rat liver mitochondria [2],About 60%
same,change in A275,rat liver mitochondria [3]; 50 μM added instead of mitoquinone,did not lead to changes in A275
Cc1c(C)c2c(c(C)c1O)CCC(C)(C(=O)O)O2 (stereo not drawn) [Trolox],IC50,rat brain homogenates; [11],18.5 ± 5.9 µM
"COc1c(O)c(C)c(CCCCCCCCCC[P+](c2ccccc2)(c2ccccc2)c2ccccc2)c(O)c1OC [mitoquinol, 10-(6′-ubiquinolyl)decyltriphenylphosphonium bromide]",inhibition of rate by myxathiazol,"[4]; FIG. 12 panel D, KCN present, myxathiazol 10 μM",60–70%
same,initial rate of oxidation of mitoquinol,"[4]; membranes inhibited with rotenone and malonate, mean of 2 +/- range",about 89±9 mmol mitoquinol/min/mg protein
same,initial rate of reduction of cytochrome c on addition of mitoquinol,"[4]; membranes supplemented with ferricytochrome c, mean+/-range",about 93+/−13 nmol/min/mg
same,cytochrome c reduction not blocked by myxathiazol,[4]; myxathiazol,30–40%
same,stability in air,[5],Oxidises rapidly in air
same,accumulation by energised mitochondria,rat liver mitochondria [6],accumulated rapidly
same,effect on mitochondrial function,rat liver mitochondria [7]; 10 μM,little effect on mitochondrial function
same,effect on mitochondrial function,rat liver mitochondria [7]; 25 μM and above,some uncoupling and inhibition of respiration
"COC1=C(OC)C(=O)C(CCCCCCCCCC[P+](c2ccccc2)(c2ccccc2)c2ccccc2)=C(C)C1=O [mitoquinone, 10-(6′-ubiquinonyl)decyltriphenylphosphonium bromide]",reaction on mixing with 50 μM ferricytochrome c,"ferricytochrome c; 50 μM, A550",some reduction of A550
same,reaction with succinate or NADH in the absence of mitochondrial membranes,ferricytochrome c; no membranes,no reaction
same,reduction by intact energised mitochondria,"rat liver mitochondria [3]; rat liver mitochondria, 50 μM",rapidly reduced
same,decrease of rate of reduction with FCCP,rat liver mitochondria [3]; uncoupler FCCP present,2–3 fold
same,proportion reduced by succinate,"[8]; antimycin inhibited beef heart membranes, succinate 5 mM",about 23%
same,Eh corresponding to proportion reduced,[8]; equilibration with succinate/fumarate couple,about +8 mV
same,rate of reduction of mitoquinone,"[8]; rotenone inhibited membranes, succinate",51±9.9 nmol/min/mg protein
same,restoration of NADH oxidation,[9],restored NADH oxidation
same,inhibition of NADH-ferricytochrome c activity by myxathiazol,"[9]; pentane extracted mitochondria, mitoquinone 50 μM",60–70%
"COC1=C(OC)C(=O)C(CC=C(C)C)=C(C)C1=O [ubiquinone-1, reference compound]",restoration of NADH oxidation,[9],partially restored
"Cc1c(C)c2c(c(C)c1O)CC[C@@](C)(CCC[C@H](C)CCC[C@H](C)CCCC(C)C)O2 [α-Tocopherol, α-tocopherol]",IC50,rat brain homogenates; [10],0.036 µM
same,Octanol:PBS partition coefficient,[1],27.4 ± 1.0
